Measurements reported in patent US20240252508A1, “Novel glucose uptake inhibitors for use in the treatment of cancer” (NOVELYEAST BV, priority 2021, published 2024).

What was measured:
[1] = tested on: tps1Δ cells; assay: Growth rescue of tps1Δ strain on glucose (growth curves, 2% galactose medium); type: cell-based, S. cerevisiae; conditions: 100 μM compound, 2.5 mM glucose
Experimental: Growth curves were made by measuring OD595 in a 96-well plate using the Multiskan™ FC Microplate Photometer (Thermo Fisher Scientific). Typically, for tps1Δ rescue experiments (FIG. 2b-e; FIG. 4a), cells were (pre)grown in Complete Synthetic medium containing 2% galactose.
Compounds were always added 10 min prior to glucose addition to ensure maximal interaction between the cells and compounds. Cells originating from the preculture were harvested, washed in medium without sugar, after which they were resuspended to an OD of 0.1 in 200 μL of the appropriate medium. At least three technical replicates were included per condition. OD595 was measured at 30° C. every 30 min with a 10-min shaking interval.

[2] = tested on: A549 lung adenocarcinoma cells; assay: A549 cell proliferation / growth inhibition; type: cell-based, human; conditions: for Selected from primary screen for growth inhibition of A549 cells at 50 μM: 50 μM compound, 1 mM glucose; for Selected for having an IC50 ratio (10 mM glucose: 1 mM glucose) of A549 growth higher than WBC-A: IC50 on 10 mM vs 1 mM glucose, compared with WBC-A
Experimental: The analog library (n=203) was screened for inhibition of growth of A549 cells on RPMI medium supplemented with 1 mM glucose. DMSO (green bar) and WBC-A (orange bar) served as negative and positive control, respectively. In addition, the reference glucose transport inhibitors STF-31, Fasentin, BAY-876, WZB-117 and Cytochalasin B were included and indicated in red. Compounds were added at 50 μM concentration. Number of cells was determined by counting nuclei stained by Hoechst after three days of growth.
For both adherent A549 and MCF10Δ H-RAS^V12 cell lines, growth curves were established using the IncuCyte® ZOOM technology. By collecting phase contrast images, the IncuCyte® software provides a calculated confluency percentage from which growth curves can be deducted.
Cells were seeded at a density of 1000-1500 cells/well in a Nunc-Edge™ 96-well plate (Thermo Fisher Scientific) and growth was typically measured over 3 to 5 days. For the measurement of apoptosis induction using the MCF10Δ H-RAS^V12 cell line, the IncuCyte® Caspase-3/7 green dye was added to the medium in the recommended concentration at the beginning of the growth curve experiment. Apoptosis was detected by taking fluorescent images by excitation at 488 nm followed by IncuCyte® software analysis. Cell growth of the KMS-12-PE multiple myeloma cell line, which grows in suspension, was measured by manual cell counting. Cells were initially seeded at a density of 10^4 cells/well and incubated for 4 days after which the cell number was counted. For all cell lines, the same medium used for pregrowth was also used for the growth curve experiment, albeit with different glucose concentrations depending on the experimental design. With compound administration, the final concentration of DMSO never exceeded 0.1%. Typically, at least four technical repeats were included per condition.

Structure (SMILES)	Rescue of the tps1Δ strain on 2.5 mM glucose at 100 μM [1]	Selected from primary screen for growth inhibition of A549 cells at 50 μM [2]	Selected for having an IC50 ratio (10 mM glucose: 1 mM glucose) of A549 growth higher than WBC-A [2]
Cc1ccc(-c2csc3ncnc(SCC(=O)N(C)Cc4ccc(C)o4)c23)cc1 [2B]	No	Yes	Lower IC50 ratio
CC(=O)N(c1nnc(Sc2nc(C)nc3scc(-c4cccs4)c23)s1)C1CC1 [39C]	No	No	
Cc1nc(N(C)CC(N)=O)c2c(-c3cccs3)csc2n1 [39B]	No	No	
CCOC(=O)c1sc2nc(C)nc(SCC(=O)CC)c2c1C [12C]	No	No	
COc1ccccc1-n1ncc2c(C)nnc(SCC(=O)N3CCOCC3)c21 [77C]	No	No	
CCCc1nnc(Sc2nc(CN3CCOCC3)nc3scc(-c4cccs4)c23)[nH]1 [62C]	No	Yes	Lower IC50 ratio
Cc1nc(SCC(=O)c2c(N)n(C)c(=O)n(C)c2=O)c2c(-c3cccs3)csc2n1 [1B]	No	No	
Cc1nc(Sc2nnc3n2CCC(CN=[N+]=[N-])CC3)c2c(-c3cccs3)csc2n1 (stereo not drawn) [87C]	Yes	Yes	Lower IC50 ratio
Cc1cc(C)nc(Sc2nc(CN3CCOCC3)nc3scc(-c4cccs4)c23)n1 [64C]	No	Yes	Lower IC50 ratio
Cc1sc2[nH]c(CSc3nnc(-c4cccs4)n3Cc3ccccc3)nc(=N)c2c1C [11A]	No	No	
c1csc(-c2csc3nc(CN4CCOCC4)nc(Sc4nnc[nH]4)c23)c1 [55A]	Yes	No	
CCCNC(=O)CN1CCC(Nc2nc(C)nc3scc(-c4cccs4)c23)CC1 [30B]	No	No	
Cc1nc(Sc2nnnn2C2CC2)c2c(-c3cccs3)csc2n1 [44C]	No	Yes	Lower IC50 ratio
Cc1nc(N2CCC3(CC2)OCCO3)c2c(-c3cccs3)csc2n1 [47B]	No	Yes	Lower IC50 ratio
Cc1nc(Sc2nnc(C(F)(F)F)n2C)c2c(-c3cccs3)csc2n1 [54C]	Yes	Yes	Lower IC50 ratio
Nc1nc(CSc2nnc3n2CCCCC3)nc2sc3c(c12)CCCCC3 [35A]	No	Yes	Lower IC50 ratio
Cc1nnc(SCC(=O)NCc2ccco2)c2c1cnn2-c1ccccc1 [71C]	No	No	
Cc1ccc(-c2csc3ncnc(SCC(=O)NCc4ccco4)c23)cc1 [8B]	No	Yes	Lower IC50 ratio
